PubChem BioAssay AID328 (DTP/NCI, 2004)
Several values for one entry are separate records, joined by “and”; a condition that tells them apart may be missing. Identical values can stand only once. Toxic doses and inconclusive results are not listed.

Test system: BDF1 mice, P388 leukemia ip, median survival T/C
Experiment: NCI In Vivo Anticancer Drug Screen. Data for tumor model P388 Leukemia (intraperitoneal) in B6D2F1 (BDF1) mice
Details: endpoint: median survival time, higher = longer survival
Outline: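 Transplantable tumour in mice; compound vs vehicle dosing; survival scored; ratio of treated to control reported.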

[1] = dose: 25.0 mg/kg/injection, schedule: Q01DX009 (ip), vehicle: saline with Tween-80
[2] = dose: 50.0 mg/kg/injection, schedule: Q01DX009 (ip), vehicle: saline with Tween-80
[3] = dose: 100.0 mg/kg/injection, schedule: Q01DX009 (ip), vehicle: saline with Tween-80
[4] = dose: 100.0 mg/kg/injection, schedule: Q04DX003 (ip), vehicle: saline with Tween-80
[5] = dose: 200.0 mg/kg/injection, schedule: Q04DX003 (ip), vehicle: saline with Tween-80
[6] = dose: 400.0 mg/kg/injection, schedule: Q04DX003 (ip), vehicle: saline with Tween-80
[7] = dose: 12.5 mg/kg/injection, schedule: Q01DX009 (ip), vehicle: saline with Tween-80
[8] = dose: 200.0 mg/kg/injection, schedule: Q01DX009 (ip), vehicle: saline with Tween-80
[9] = dose: 400.0 mg/kg/injection, schedule: Q01DX009 (ip), vehicle: saline with Tween-80
[10] = dose: 50.0 mg/kg/injection, schedule: Q01DX005 (ip), vehicle: saline
[11] = dose: 100.0 mg/kg/injection, schedule: Q01DX005 (ip), vehicle: saline
[12] = dose: 25.0 mg/kg/injection, schedule: Q04DX003 (ip), vehicle: saline with Tween-80
[13] = dose: 50.0 mg/kg/injection, schedule: Q04DX003 (ip), vehicle: saline with Tween-80
[14] = dose: 6.25 mg/kg/injection, schedule: Q01DX009 (ip), vehicle: saline with Tween-80
[15] = dose: 100.0 mg/kg/injection, schedule: Q04DX003 (ip), vehicle: saline sonified
[16] = dose: 200.0 mg/kg/injection, schedule: Q04DX003 (ip), vehicle: saline sonified
[17] = dose: 400.0 mg/kg/injection, schedule: Q04DX003 (ip), vehicle: saline sonified
[18] = dose: 100.0 mg/kg/injection, schedule: Q04DX003 (ip), vehicle: saline
[19] = dose: 200.0 mg/kg/injection, schedule: Q04DX003 (ip), vehicle: saline

COC(=O)c1c(Cl)c(Cl)c(C(=O)OC)c(Cl)c1Cl
T/C [1]: 100 % of control | T/C [2]: 100 % of control | T/C [3]: 86 % of control | T/C [4]: 91 % of control | T/C [5]: 108 % of control | T/C (dose: 266.0 mg/kg/injection, schedule: Q04DX003 (ip), vehicle: saline with Tween-80): 95 % of control | T/C [6]: 90 % of control | T/C (dose: 600.0 mg/kg/injection, schedule: Q04DX003 (ip), vehicle: saline with Tween-80): 100 % of control

COC(=O)C1=C(C)NC(C)=C(C(=O)OC)C(N2C(=O)CCC2=O)C1 (stereo unspecified)
T/C [7]: 97 % of control | T/C [1]: 94 % of control | T/C [2]: 95 % of control and 123 % of control | T/C [3]: 94 % of control and 107 % of control | T/C [8]: 107 % of control

O=C(COc1ccc([N+](=O)[O-])cc1)Nc1cccnc1
T/C [4]: 100 % of control | T/C [6]: 100 % of control

Cc1cc([N+](=O)[O-])c2ccccc2c1N(CC(=O)O)S(=O)(=O)c1ccccc1
T/C [3]: 100 % of control | T/C [4]: 100 % of control | T/C [8]: 112 % of control | T/C [5]: 100 % of control | T/C [9]: 120 % of control | T/C [6]: 121 % of control

O=C1Nc2ccccc2S/C1=C\c1ccc(C(F)(F)F)cc1
T/C [2]: 115 % of control | T/C [3]: 100 % of control | T/C [8]: 110 % of control

CCC(C(N)C(=O)O)C(F)(F)F (stereo unspecified)
T/C [10]: 103 % of control | T/C [11]: 108 % of control | T/C (dose: 200.0 mg/kg/injection, schedule: Q01DX005 (ip), vehicle: saline): 103 % of control

Fc1ccccc1C1=NCC(=S)N(CC(F)(F)F)c2ccc(Cl)cc21
T/C [2]: 100 % of control | T/C [3]: 96 % of control

COc1cc2c(cc1OC)C(c1ccc(N=Cc3ccc(N(C)C)cc3)cc1)N(C(=S)Nc1cc(Cl)ccc1Cl)CC2 (stereo unspecified)
T/C [1]: 97 % of control | T/C [2]: 93 % of control and 97 % of control | T/C [3]: 95 % of control | T/C [8]: 89 % of control

COc1cc(C=Nc2cc(Cl)c(O)c(Cl)c2)ccc1N(CCCl)CCCl
T/C (dose: 5.0 mg/kg/injection, schedule: Q04DX003 (ip), vehicle: saline with Tween-80): 181 % of control | T/C (dose: 8.0 mg/kg/injection, schedule: Q04DX003 (ip), vehicle: saline with Tween-80): 222 % of control | T/C (dose: 12.0 mg/kg/injection, schedule: Q04DX003 (ip), vehicle: saline with Tween-80): 231 % of control and 211 % of control | T/C (dose: 12.5 mg/kg/injection, schedule: Q04DX003 (ip), vehicle: saline with Tween-80): 111 % of control | T/C (dose: 17.0 mg/kg/injection, schedule: Q04DX003 (ip), vehicle: saline with Tween-80): 196 % of control | T/C [12]: 215 % of control | T/C (dose: 37.5 mg/kg/injection, schedule: Q04DX003 (ip), vehicle: saline with Tween-80): 230 % of control | T/C [13]: 100 % of control

Nc1nc(F)nc2c1ncn2C1OC(CO)C(O)C1O (stereo unspecified)
T/C (dose: 0.5 mg/kg/injection, schedule: Q01DX010 (ip), vehicle: saline): 90 % of control and 108 % of control | T/C (dose: 1.0 mg/kg/injection, schedule: Q01DX010 (ip), vehicle: saline): 100 % of control and 108 % of control | T/C (dose: 2.0 mg/kg/injection, schedule: Q01DX010 (ip), vehicle: saline): 110 % of control and 120 % of control | T/C (dose: 4.0 mg/kg/injection, schedule: Q01DX010 (ip), vehicle: saline): 105 % of control and 112 % of control

CCOc1ccc(/C=N/NS(=O)(=O)c2ccccc2)cc1OC
T/C [8]: 105 % of control | T/C [9]: 100 % of control

COc1ccc(/C(=N/N)C(C)(C)C)cc1
T/C [2]: 88 % of control

Clc1ccc(-c2ncc3cnccn23)cc1Cl
T/C (dose: 0.78 mg/kg/injection, schedule: Q04DX003 (ip), vehicle: saline with Tween-80): 92 % of control | T/C (dose: 1.56 mg/kg/injection, schedule: Q01DX009 (ip), vehicle: saline with Tween-80): 89 % of control | T/C (dose: 1.56 mg/kg/injection, schedule: Q04DX003 (ip), vehicle: saline with Tween-80): 90 % of control | T/C (dose: 3.12 mg/kg/injection, schedule: Q01DX009 (ip), vehicle: saline with Tween-80): 95 % of control | T/C (dose: 3.12 mg/kg/injection, schedule: Q04DX003 (ip), vehicle: saline with Tween-80): 94 % of control | T/C [14]: 95 % of control | T/C (dose: 6.25 mg/kg/injection, schedule: Q04DX003 (ip), vehicle: saline with Tween-80): 100 % of control | T/C [7]: 99 % of control | T/C [1]: 100 % of control | T/C [2]: 100 % of control

CC(=O)c1ccccc1OS(=O)(=O)c1ccc([N+](=O)[O-])cc1
T/C (dose: 100.0 mg/kg/injection, schedule: Q01DX009 (ip), vehicle: saline sonified): 95 % of control | T/C [15]: 100 % of control | T/C (dose: 200.0 mg/kg/injection, schedule: Q01DX009 (ip), vehicle: saline sonified): 104 % of control | T/C [16]: 90 % of control | T/C [17]: 100 % of control

CCOC(=O)c1nc(NC)sc1N
T/C (dose: 25.0 mg/kg/injection, schedule: Q04DX003 (ip), vehicle: saline): 97 % of control | T/C (dose: 50.0 mg/kg/injection, schedule: Q04DX003 (ip), vehicle: saline): 100 % of control | T/C [18]: 105 % of control | T/C [19]: 96 % of control

COC(C)C(Br)C(=O)O (stereo unspecified)
T/C (dose: 100.0 mg/kg/injection, schedule: Q01DX009 (ip), vehicle: saline): 88 % of control | T/C [18]: 100 % of control | T/C (dose: 200.0 mg/kg/injection, schedule: Q01DX009 (ip), vehicle: saline): 92 % of control | T/C [19]: 91 % of control | T/C (dose: 400.0 mg/kg/injection, schedule: Q04DX003 (ip), vehicle: saline): 91 % of control

O=c1c2oc3ccccc3c2cnn1CO
T/C [3]: 90 % of control | T/C [8]: 116 % of control

CC(=O)O[C@@]1(C)[C@@H](C)C(=O)O[C@@H]2CCN3CC=C(COC(=O)[C@]1(C)O)[C@H]23
T/C (dose: 25.0 mg/kg/injection, schedule: Q01DX010 (ip), vehicle: carboxymethylcellulose (CMC)): 110 % of control | T/C (dose: 50.0 mg/kg/injection, schedule: Q01DX010 (ip), vehicle: carboxymethylcellulose (CMC)): 95 % of control | T/C (dose: 100.0 mg/kg/injection, schedule: Q01DX010 (ip), vehicle: carboxymethylcellulose (CMC)): 100 % of control

NNc1ncnc2c(C3OC(CO)C(O)C3O)[nH]nc12 (stereo unspecified)
T/C (dose: 20.0 mg/kg/injection, schedule: Q01DX009 (ip), vehicle: water): 100 % of control | T/C (dose: 30.0 mg/kg/injection, schedule: Q01DX009 (ip), vehicle: water): 105 % of control | T/C (dose: 45.0 mg/kg/injection, schedule: Q01DX009 (ip), vehicle: water): 110 % of control | T/C (dose: 67.0 mg/kg/injection, schedule: Q01DX009 (ip), vehicle: water): 95 % of control | T/C (dose: 100.0 mg/kg/injection, schedule: Q01DX009 (ip), vehicle: water): 100 % of control

c1ccc(-c2cc(-c3ccccc3)[s+]s2)cc1
T/C [14]: 111 % of control | T/C [7]: 117 % of control and 124 % of control | T/C [1]: 91 % of control and 110 % of control and 115 % of control | T/C [12]: 98 % of control | T/C [2]: 92 % of control and 113 % of control | T/C [13]: 109 % of control and 115 % of control | T/C [3]: 98 % of control and 113 % of control | T/C [4]: 117 % of control and 118 % of control | T/C [8]: 99 % of control and 120 % of control | T/C [5]: 108 % of control | T/C (dose: 300.0 mg/kg/injection, schedule: Q01DX009 (ip), vehicle: saline with Tween-80): 94 % of control

NC(=O)SCC(=O)Nc1ccc2ncccc2c1
T/C (dose: 88.0 mg/kg/injection, schedule: Q01DX009 (ip), vehicle: saline): 122 % of control | T/C [15]: 104 % of control | T/C (dose: 132.0 mg/kg/injection, schedule: Q01DX009 (ip), vehicle: saline): 118 % of control | T/C [16]: 100 % of control | T/C [17]: 100 % of control

CCC(C)(O)C(=O)OC1C(=O)OC2CC3C(C)CC(=O)C(O)C3(C)C3C4(O)OCC23C1C(C)C4O (stereo unspecified)
T/C (dose: 0.12 mg/kg/injection, schedule: Q01DX009 (ip), vehicle: saline with Tween-80): 121 % of control | T/C (dose: 0.25 mg/kg/injection, schedule: Q01DX009 (ip), vehicle: saline with Tween-80): 118 % of control | T/C (dose: 0.5 mg/kg/injection, schedule: Q01DX009 (ip), vehicle: saline with Tween-80): 116 % of control | T/C (dose: 1.0 mg/kg/injection, schedule: Q01DX009 (ip), vehicle: saline with Tween-80): 121 % of control | T/C (dose: 8.0 mg/kg/injection, schedule: Q01DX009 (ip), vehicle: saline with Tween-80): 122 % of control | T/C (dose: 16.0 mg/kg/injection, schedule: Q01DX009 (ip), vehicle: saline with Tween-80): 152 % of control

CN(C)CCNC(=O)Cc1cc(O)c2c(c1O)C(=O)c1ccccc1C2=O
T/C [10]: 105 % of control | T/C [11]: 118 % of control
